pEC50: −log10 of the molar value.
How the values were obtained:
Plasmodium falciparum [1] = test: NOVARTIS: Inhibition of Plasmodium falciparum 3D7 (drug-susceptible) proliferation in erythrocyte-based infection assay; format: functional, organism-based; details: Plasmodium falciparum, 3D7
[2] = NOVARTIS: Cytotoxicity against human hepatocellular carcinoma cell line (Huh7); format: toxicity, cell-based, Huh-7; details: Huh7 cells (hepatocellular carcinoma cell line)
Plasmodium falciparum [3] = test: NOVARTIS: Inhibition of Plasmodium falciparum W2 (drug-resistant) proliferation in erythrocyte-based infection assay; format: functional, organism-based; details: Plasmodium falciparum, W2; read-out: EC50

SMILES	pEC50 (Plasmodium falciparum [1])	CC50 [2] [nM]	pEC50 (Plasmodium falciparum [3])
CCC(C(=O)NCc1ccc(OC)c(OC)c1)n1nc(C)c2c(C)n(-c3ccc(C)cc3)nc2c1=O (centres undefined)	6.56	> 100000	6.52
COc1cc(NCCCC(C)Nc2ccnc3cc4ccccc4cc23)c2ncccc2c1 (centres undefined)	7.08	2470	7.30
Cc1ccc2c(c1)C(C)(c1ccc(Cl)cc1)CC(C)(C)N2C(=O)COc1ccc2ccccc2c1 (centres undefined)	< 4.90	> 100000	6.91
c1ccc2nc3c(nnc4ccccc43)nc2c1	5.96	28500	6.00
CCOC(=O)C1=C(c2ccccc2)N=c2sc(=Cc3ccccc3O)c(=O)n2C1c1c(OC)ccc2ccccc12 (centres undefined)	5.64	> 100000	6.57
CCOc1ccc(CN(C(=O)C(C)(C)CCl)C(C)CCCN(CC)CC)cc1 (centres undefined)	< 6.06	> 10000	6.03
COC(=O)[C@@H]1C[C@@H](NC(=O)c2ccc(OC)cc2OC)CN1Cc1ccc(C(F)(F)F)cc1	6.46	> 100000	6.80
CCCCCN(CC(=O)Nc1cc(C(C)(C)C)nn1-c1ccc(Cl)c(Cl)c1)C(=O)c1cccc(OC)c1	6.22	> 10000	6.00
C=CC1CN2CCC1CC2C(O)c1ccnc2ccccc12 (centres undefined)	7.36	> 100000	7.08
CC(C)CNC(=O)c1cnc(NCCCn2ccnc2)nc1Nc1ccccc1	6.20	> 10000	6.19
Cc1ccc(NC(=O)N2CCN(CCN(Cc3ccc(F)cc3)C(=O)c3ccccc3C)CC2)cc1	< 5.76	> 10000	6.09
Cc1ccc(Nc2nc(NN=Cc3ccc(-c4ccc([N+](=O)[O-])cc4)o3)nc(Nc3ccccc3)n2)c(C)c1	< 6.08	> 10000	6.41
CC1N=C2c3ccccc3N=C(SCc3ccc(F)cc3)N2C1=O (centres undefined)	< 4.90	> 100000	< 5.19
O=C(NNc1nc2ccccc2nc1Cl)Nc1ccc(Cl)cc1	6.66	7760	6.51
O=C(c1cccc([N+](=O)[O-])c1)c1ccc(Cl)c(Cl)c1	6.21	62400	7.24
Cc1nc2c(C#N)c(C)nn2c(C)c1Cc1cccc(F)c1	6.36	> 10000	6.35
Cn1c(=O)c2c(ncn2CC(O)CN=C2CCCCN2)n(C)c1=O (centres undefined)	< 5.90	> 10000	< 6.03

SMILES	pEC50 (Plasmodium falciparum [1])	CC50 [2] [nM]	pEC50 (Plasmodium falciparum [3])
CC(=O)OC(OC(C)=O)C12C=CC(O1)C1C(=O)N(c3cccc(C)c3)C(=O)C12 (centres undefined)	< 6.10	> 10000	< 5.90
O=C1CN(C(=O)CCC2CCCC2)C(c2ccc(F)cc2)c2cc(F)ccc2N1 (centres undefined)	6.18	60300	6.64
CCCCN(C(=O)CCC(=O)Nc1cc(C)on1)C(C(=O)NC1CCCC1)c1ccc(C)o1 (centres undefined)	7.65	> 10000	7.43
CCOc1cccc2c1N(C(=O)c1ccc(C)cc1)C(C)(C)C1=C2C2(SC(C(=O)OC)=C(C(=O)OC)S2)C(C(=O)OC)=C(C(=O)OC)S1	5.97	> 10000	6.18
COc1cc(C=NNC(=O)c2ccco2)ccc1OCc1ccc([N+](=O)[O-])cc1	< 5.90	> 10000	< 6.03
N#Cc1cn(-c2ccc(Cl)cc2)c(=O)n(Cc2c(Cl)cccc2Cl)c1=O	6.09	> 10000	< 5.90
O=C1N(Cc2cc3ccccc3s2)CC2CN(Cc3ccc(F)c(F)c3)CCN12 (centres undefined)	6.62	> 10000	> 7.86
O=C(NC(c1ccccc1)c1ccccc1)N(Cc1ccccc1)CC(O)CN(CCN1CCOCC1)S(=O)(=O)Cc1ccccc1 (centres undefined)	6.94	> 6820	6.79
CCCOC(=O)C1=C(C)NC2=C(C(=O)CC(c3ccc(OC)c(OC)c3)C2)C1c1ccccc1C (centres undefined)	7.90	> 100000	8.01
O[C@H]1[C@H]2c3cc4c(cc3CN3CCC(=C[C@@H]1O)[C@H]23)OCO4 [LYCORINE]	6.22	66100	6.81
O=[N+]([O-])c1ccc(NN=Cc2cccs2)c(S(=O)(=O)N2CCCCCC2)c1	< 5.90	> 10000	< 6.05
O=C(O)/C=C\C(=O)N(C1CCCCC1)C1CCCCC1	< 5.90	> 10000	< 6.15
Nc1nonc1-n1nnc(-c2ccccc2)c1C(=O)NN=Cc1ccc(F)c(Br)c1	6.47	> 100000	6.92
CCOc1ccc(N(CC)S(=O)(=O)c2cc(Br)cc3c2N(C(C)=O)CC3)cc1	6.90	> 100000	7.12
CCCc1cc2c(=O)c(-c3cc4ccccc4o3)coc2cc1OC(C)C(=O)OCC (centres undefined)	< 5.93	> 10000	< 5.90
Cc1cc2c(cc1S(=O)(=O)N1CCCCC1C)OCC(=O)N2 (centres undefined)	< 4.90	> 100000	6.30

— ChEMBL document CHEMBL1156829 (Proc Natl Acad Sci U S A, 2008)
